# From ChEMBL document CHEMBL3045835, “Comparative study of conventional and microwave-assisted synthesis of some Schiff bases and their potential as antimicrobial agents” (2012)
# Tests used:
# Format in all cases: functional
# Micrococcus luteus [1] = assay: Antibacterial activity against Micrococcus luteus MTCC 1538 at 1000 ug/ml after 18 hr by cup-plate method; details: MTCC 1538, 18 h, read-out: DIZ
# Staphylococcus aureus [2] = assay: Antibacterial activity against Staphylococcus aureus MTCC 1430 at 100 ug/ml after 18 hr by cup-plate method; details: MTCC 1430, 18 h, read-out: DIZ
# Escherichia coli [3] = assay: Antibacterial activity against Escherichia coli MTCC 1573 at 500 ug/ml after 18 hr by cup-plate method; details: MTCC 1573, 18 h, read-out: DIZ
# Pseudomonas fluorescens [4] = assay: Antibacterial activity against Pseudomonas fluorescens MTCC 2421 at 500 ug/ml after 18 hr by cup-plate method; details: MTCC 2421, 18 h, read-out: DIZ
# Staphylococcus aureus [5] = assay: Antibacterial activity against Staphylococcus aureus MTCC 1430 at 1000 ug/ml after 18 hr by cup-plate method; details: MTCC 1430, 18 h, read-out: DIZ
# Pseudomonas fluorescens [6] = assay: Antibacterial activity against Pseudomonas fluorescens MTCC 2421 at 1000 ug/ml after 18 hr by cup-plate method; details: MTCC 2421, 18 h, read-out: DIZ
# Escherichia coli [7] = assay: Antibacterial activity against Escherichia coli MTCC 1573 at 1500 ug/ml after 18 hr by cup-plate method; details: MTCC 1573, 18 h, read-out: DIZ
# Pseudomonas fluorescens [8] = assay: Antibacterial activity against Pseudomonas fluorescens MTCC 2421 at 200 ug/ml after 18 hr by cup-plate method; details: MTCC 2421, 18 h, read-out: DIZ
# Bacillus pumilus [9] = assay: Antibacterial activity against Bacillus pumilus MTCC 1456 at 100 ug/ml after 18 hr by cup-plate method; details: MTCC 1456, 18 h, read-out: DIZ
# Pseudomonas aeruginosa [10] = assay: Antibacterial activity against Pseudomonas aeruginosa MTCC 424 after 24 hr by broth dilution method; details: MTCC 424, 24 h
# Escherichia coli [11] = assay: Antibacterial activity against Escherichia coli MTCC 1573 after 24 hr by broth dilution method; details: MTCC 1573, 24 h
# Penicillium chrysogenum [12] = assay: Antifungal activity against Penicillium chrysogenum MTCC 161 at 500 ug/ml after 18 hr by cup-plate method; details: MTCC 161, 18 h, read-out: DIZ
# Micrococcus luteus [13] = assay: Antibacterial activity against Micrococcus luteus MTCC 1538 after 24 hr by broth dilution method; details: MTCC 1538, 24 h
# Bacillus subtilis [14] = assay: Antibacterial activity against Bacillus subtilis MTCC 441 at 200 ug/ml after 18 hr by cup plate method; details: MTCC 441, 18 h, read-out: DIZ
# Staphylococcus aureus [15] = assay: Antibacterial activity against Staphylococcus aureus MTCC 1430 at 200 ug/ml after 18 hr by cup-plate method; details: MTCC 1430, 18 h, read-out: DIZ
# Pseudomonas aeruginosa [16] = assay: Antibacterial activity against Pseudomonas aeruginosa MTCC 424 at 100 ug/ml after 18 hr by cup-plate method; details: MTCC 424, 18 h, read-out: DIZ
# Escherichia coli [17] = assay: Antibacterial activity against Escherichia coli MTCC 1573 at 1000 ug/ml after 18 hr by cup-plate method; details: MTCC 1573, 18 h, read-out: DIZ
# Bacillus pumilus [18] = assay: Antibacterial activity against Bacillus pumilus MTCC 1456 after 24 hr by broth dilution method; details: MTCC 1456, 24 h
# Bacillus subtilis [19] = assay: Antibacterial activity against Bacillus subtilis MTCC 441 at 100 ug/ml after 18 hr by cup plate method; details: MTCC 441, 18 h, read-out: DIZ
# Micrococcus luteus [20] = assay: Antibacterial activity against Micrococcus luteus MTCC 1538 at 1500 ug/ml after 18 hr by cup-plate method; details: MTCC 1538, 18 h, read-out: DIZ
# Aspergillus niger [21] = assay: Antifungal activity against Aspergillus niger MTCC 2546 at 500 ug/ml after 18 hr by cup-plate method; details: MTCC 2546, 18 h, read-out: DIZ
# Pseudomonas fluorescens [22] = assay: Antibacterial activity against Pseudomonas fluorescens MTCC 2421 at 100 ug/ml after 18 hr by cup-plate method; details: MTCC 2421, 18 h, read-out: DIZ
# Pseudomonas aeruginosa [23] = assay: Antibacterial activity against Pseudomonas aeruginosa MTCC 424 at 1000 ug/ml after 18 hr by cup-plate method; details: MTCC 424, 18 h, read-out: DIZ
# Penicillium chrysogenum [24] = assay: Antifungal activity against Penicillium chrysogenum MTCC 161 at 200 ug/ml after 18 hr by cup-plate method; details: MTCC 161, 18 h, read-out: DIZ
# Staphylococcus aureus [25] = assay: Antibacterial activity against Staphylococcus aureus MTCC 1430 at 1500 ug/ml after 18 hr by cup-plate method; details: MTCC 1430, 18 h, read-out: DIZ
# Penicillium chrysogenum [26] = assay: Antifungal activity against Penicillium chrysogenum MTCC 161 at 100 ug/ml after 18 hr by cup-plate method; details: MTCC 161, 18 h, read-out: DIZ
# Escherichia coli [27] = assay: Antibacterial activity against Escherichia coli MTCC 1573 at 200 ug/ml after 18 hr by cup-plate method; details: MTCC 1573, 18 h, read-out: DIZ
# Penicillium chrysogenum [28] = assay: Antifungal activity against Penicillium chrysogenum MTCC 161 after 24 hr by broth dilution method; details: MTCC 161, 24 h
# Bacillus pumilus [29] = assay: Antibacterial activity against Bacillus pumilus MTCC 1456 at 200 ug/ml after 18 hr by cup-plate method; details: MTCC 1456, 18 h, read-out: DIZ
# Escherichia coli [30] = assay: Antibacterial activity against Escherichia coli MTCC 1573 at 100 ug/ml after 18 hr by cup-plate method; details: MTCC 1573, 18 h, read-out: DIZ
# Bacillus pumilus [31] = assay: Antibacterial activity against Bacillus pumilus MTCC 1456 at 1000 ug/ml after 18 hr by cup-plate method; details: MTCC 1456, 18 h, read-out: DIZ
# Bacillus subtilis [32] = assay: Antibacterial activity against Bacillus subtilis MTCC 441 after 24 hr by broth dilution method; details: MTCC 441, 24 h
# Bacillus pumilus [33] = assay: Antibacterial activity against Bacillus pumilus MTCC 1456 at 1500 ug/ml after 18 hr by cup-plate method; details: MTCC 1456, 18 h, read-out: DIZ
# Aspergillus niger [34] = assay: Antifungal activity against Aspergillus niger MTCC 2546 at 1500 ug/ml after 18 hr by cup-plate method; details: MTCC 2546, 18 h, read-out: DIZ
# Pseudomonas aeruginosa [35] = assay: Antibacterial activity against Pseudomonas aeruginosa MTCC 424 at 1500 ug/ml after 18 hr by cup-plate method; details: MTCC 424, 18 h, read-out: DIZ
# Pseudomonas aeruginosa [36] = assay: Antibacterial activity against Pseudomonas aeruginosa MTCC 424 at 500 ug/ml after 18 hr by cup-plate method; details: MTCC 424, 18 h, read-out: DIZ
# Bacillus subtilis [37] = assay: Antibacterial activity against Bacillus subtilis MTCC 441 at 1500 ug/ml after 18 hr by cup plate method; details: MTCC 441, 18 h, read-out: DIZ
# Micrococcus luteus [38] = assay: Antibacterial activity against Micrococcus luteus MTCC 1538 at 100 ug/ml after 18 hr by cup-plate method; details: MTCC 1538, 18 h, read-out: DIZ
# Micrococcus luteus [39] = assay: Antibacterial activity against Micrococcus luteus MTCC 1538 at 500 ug/ml after 18 hr by cup-plate method; details: MTCC 1538, 18 h, read-out: DIZ
# Aspergillus niger [40] = assay: Antifungal activity against Aspergillus niger MTCC 2546 at 100 ug/ml after 18 hr by cup-plate method; details: MTCC 2546, 18 h, read-out: DIZ
# Pseudomonas fluorescens [41] = assay: Antibacterial activity against Pseudomonas fluorescens MTCC 2421 after 24 hr by broth dilution method; details: MTCC 2421, 24 h
# Aspergillus niger [42] = assay: Antifungal activity against Aspergillus niger MTCC 2546 after 24 hr by broth dilution method; details: MTCC 2546, 24 h
# Micrococcus luteus [43] = assay: Antibacterial activity against Micrococcus luteus MTCC 1538 at 200 ug/ml after 18 hr by cup-plate method; details: MTCC 1538, 18 h, read-out: DIZ
# Pseudomonas fluorescens [44] = assay: Antibacterial activity against Pseudomonas fluorescens MTCC 2421 at 1500 ug/ml after 18 hr by cup-plate method; details: MTCC 2421, 18 h, read-out: DIZ
# Staphylococcus aureus [45] = assay: Antibacterial activity against Staphylococcus aureus MTCC 1430 after 24 hr by broth dilution method; details: MTCC 1430, 24 h
# Bacillus subtilis [46] = assay: Antibacterial activity against Bacillus subtilis MTCC 441 at 500 ug/ml after 18 hr by cup plate method; details: MTCC 441, 18 h, read-out: DIZ
# Bacillus pumilus [47] = assay: Antibacterial activity against Bacillus pumilus MTCC 1456 at 500 ug/ml after 18 hr by cup-plate method; details: MTCC 1456, 18 h, read-out: DIZ
# Staphylococcus aureus [48] = assay: Antibacterial activity against Staphylococcus aureus MTCC 1430 at 500 ug/ml after 18 hr by cup-plate method; details: MTCC 1430, 18 h, read-out: DIZ
# Penicillium chrysogenum [49] = assay: Antifungal activity against Penicillium chrysogenum MTCC 161 at 1000 ug/ml after 18 hr by cup-plate method; details: MTCC 161, 18 h, read-out: DIZ
# Bacillus subtilis [50] = assay: Antibacterial activity against Bacillus subtilis MTCC 441 at 1000 ug/ml after 18 hr by cup plate method; details: MTCC 441, 18 h, read-out: DIZ
# Penicillium chrysogenum [51] = assay: Antifungal activity against Penicillium chrysogenum MTCC 161 at 1500 ug/ml after 18 hr by cup-plate method; details: MTCC 161, 18 h, read-out: DIZ
# Pseudomonas aeruginosa [52] = assay: Antibacterial activity against Pseudomonas aeruginosa MTCC 424 at 200 ug/ml after 18 hr by cup-plate method; details: MTCC 424, 18 h, read-out: DIZ
# Aspergillus niger [53] = assay: Antifungal activity against Aspergillus niger MTCC 2546 at 200 ug/ml after 18 hr by cup-plate method; details: MTCC 2546, 18 h, read-out: DIZ
# Aspergillus niger [54] = assay: Antifungal activity against Aspergillus niger MTCC 2546 at 1000 ug/ml after 18 hr by cup-plate method; details: MTCC 2546, 18 h, read-out: DIZ
compound,measurement,setting,value
Cc1cc(/N=C/c2cccc3ccccc23)no1,zone of inhibition at 1000 µg/mL,Micrococcus luteus [1],22 mm
same,zone of inhibition at 100 µg/mL,Staphylococcus aureus [2],13 mm
same,zone of inhibition at 500 µg/mL,Escherichia coli [3],14 mm
same,zone of inhibition at 500 µg/mL,Pseudomonas fluorescens [4],15 mm
same,zone of inhibition at 1000 µg/mL,Staphylococcus aureus [5],16 mm
same,zone of inhibition at 1000 µg/mL,Pseudomonas fluorescens [6],18 mm
same,zone of inhibition at 1500 µg/mL,Escherichia coli [7],17 mm
same,zone of inhibition at 200 µg/mL,Pseudomonas fluorescens [8],13 mm
same,zone of inhibition at 100 µg/mL,Bacillus pumilus [9],13 mm
same,MIC,Pseudomonas aeruginosa [10],300 µg/mL
same,MIC,Escherichia coli [11],300 µg/mL
same,zone of inhibition at 500 µg/mL,Penicillium chrysogenum [12],18 mm
same,MIC,Micrococcus luteus [13],200 µg/mL
same,zone of inhibition at 200 µg/mL,Bacillus subtilis [14],16 mm
same,zone of inhibition at 200 µg/mL,Staphylococcus aureus [15],14 mm
same,zone of inhibition at 100 µg/mL,Pseudomonas aeruginosa [16],14 mm
same,zone of inhibition at 1000 µg/mL,Escherichia coli [17],15 mm
same,MIC,Bacillus pumilus [18],300 µg/mL
same,zone of inhibition at 100 µg/mL,Bacillus subtilis [19],13 mm
same,zone of inhibition at 1500 µg/mL,Micrococcus luteus [20],24 mm
same,zone of inhibition at 500 µg/mL,Aspergillus niger [21],19 mm
same,zone of inhibition at 100 µg/mL,Pseudomonas fluorescens [22],11 mm
same,zone of inhibition at 1000 µg/mL,Pseudomonas aeruginosa [23],18 mm
same,zone of inhibition at 200 µg/mL,Penicillium chrysogenum [24],16 mm
same,zone of inhibition at 1500 µg/mL,Staphylococcus aureus [25],20 mm
same,zone of inhibition at 100 µg/mL,Penicillium chrysogenum [26],15 mm
same,zone of inhibition at 200 µg/mL,Escherichia coli [27],13 mm
same,MIC,Penicillium chrysogenum [28],200 µg/mL
same,zone of inhibition at 200 µg/mL,Bacillus pumilus [29],15 mm
same,zone of inhibition at 100 µg/mL,Escherichia coli [30],12 mm
same,zone of inhibition at 1000 µg/mL,Bacillus pumilus [31],17 mm
same,MIC,Bacillus subtilis [32],300 µg/mL
same,zone of inhibition at 1500 µg/mL,Bacillus pumilus [33],18 mm
same,zone of inhibition at 1500 µg/mL,Aspergillus niger [34],21 mm
same,zone of inhibition at 1500 µg/mL,Pseudomonas aeruginosa [35],20 mm
same,zone of inhibition at 500 µg/mL,Pseudomonas aeruginosa [36],17 mm
same,zone of inhibition at 1500 µg/mL,Bacillus subtilis [37],20 mm
same,zone of inhibition at 100 µg/mL,Micrococcus luteus [38],16 mm
same,zone of inhibition at 500 µg/mL,Micrococcus luteus [39],20 mm
same,zone of inhibition at 100 µg/mL,Aspergillus niger [40],13 mm
same,MIC,Pseudomonas fluorescens [41],300 µg/mL
same,MIC,Aspergillus niger [42],300 µg/mL
same,zone of inhibition at 200 µg/mL,Micrococcus luteus [43],18 mm
same,zone of inhibition at 1500 µg/mL,Pseudomonas fluorescens [44],19 mm
same,MIC,Staphylococcus aureus [45],400 µg/mL
same,zone of inhibition at 500 µg/mL,Bacillus subtilis [46],17 mm
same,zone of inhibition at 500 µg/mL,Bacillus pumilus [47],16 mm
same,zone of inhibition at 500 µg/mL,Staphylococcus aureus [48],15 mm
same,zone of inhibition at 1000 µg/mL,Penicillium chrysogenum [49],19 mm
same,zone of inhibition at 1000 µg/mL,Bacillus subtilis [50],19 mm
same,zone of inhibition at 1500 µg/mL,Penicillium chrysogenum [51],20 mm
same,zone of inhibition at 200 µg/mL,Pseudomonas aeruginosa [52],16 mm
same,zone of inhibition at 200 µg/mL,Aspergillus niger [53],18 mm
same,zone of inhibition at 1000 µg/mL,Aspergillus niger [54],20 mm
